Source: patent US20210393742A1, “LONG-ACTING INTERLEUKIN-15 RECEPTOR AGONIST IN COMBINATION WITH ANOTHER PHARMACOLOGICALLY ACTIVE AGENT” (Nektar Therapeutics, priority 2018, published 2021)

Legend:
HCT-116 cells = test: ADCC of cetuximab-coated HCT-116 cells by primed human NK cells (Example 20); format: cell-based; settings: NK cells primed with 300 ng/mL overnight; cetuximab 30 ug/mL; E:T 10:1, 3 hours
Description: Human NK cells were magnetically sorted from normal donor PBMCs using negative selection. NK cells were seeded in a 96-well U-bottom plate at a density of 400,000 cells/well. NK cells were stimulated with mono(methoxyPEG-N-butanamide)40 kD interleukin-15 (Compound 1) (300 ng/mL) (+) or left unstimulated (−) in complete RPMI-1640 media supplemented with 10% fetal bovine serum (FBS) and 1% antibiotic/antimycotic overnight at 37° C. in 5% CO2.
The colonic human HCT-116 cells (ATCC #CCL-247) were cultured McCoy 5A media (ATCC+30-2007) supplemented with 10% fetal bovine serum (FBS) and 1% antibiotic/antimycotic at 37° C. in 5% CO2. HCT-116 cells were subcultured by incubating in 0.25% Trypsin-0.53 mM EDTA for 5 min at 37° C., washed in sterile PBS, resuspended in culture media, counted, and co-cultured with the NK cells using an effector:target (E:T) of 10:1. […] Following incubation, cells were washed in flow staining buffer, Fc-blocked for 15 min at 4° C., and surface-stained (EpCAM, CD45, CD56, CD3-fluorescently conjugated antibodies) for 20 min at 4° C. in the dark. The cells were washed in PBS and incubated in 7-aminoactinomycin (7-AAD) viability stain for 30 minutes at 4° C. before acquiring for flow cytometric analysis using a Fortessa (BD). The percentage of 7-AAD+CD45-EpCAM+ target cells from total cell population is the percentage for dead tumor cells.

NCI-N87 cells = test: Tumor growth inhibition in NCI-N87 gastric carcinoma model (Example 22); format: in vivo, mice; settings: 25 days after treatment initiation; trastuzumab 3/1/1 mg/kg IV; Compound 1 0.3 mg/kg IV x3
Description: Tumor growth inhibition in inoculated mice was measured 25 days after treatment initiation. Results are provided graphically in FIG. 25.

Daudi B cell lymphoma [1] = test: Survival in Daudi B cell lymphoma xenograft model, combination with rituximab (Example 1); format: in vivo, mice; settings: after about 35 days; agonist 0.3 mg/kg, days 14 and 17
Description: At day 0, SCID mice were intravenously injected with 1×10^7 Daudi cells. The mice were divided into four groups. On days 14 and 17 post-Daudi cell injection, the groups were treated by injection as follows: Group 1: isotype control antibody, Group 2: 40 mg/kg IP rituximab, Group 3: 0.3 mg/kg mono(methoxyPEG-N-butanamide)40 kD interleukin-15 (a long-acting IL-15 receptor agonist), Group 4: 40 mg/kg IP rituximab and 0.3 mg/kg SC mono(methoxyPEG-N-butanamide)40 kD interleukin-15 (combination).
The survival rate was determined by measuring the onset of hind limb paralysis as a surrogate parameter.

[2] = system: STAT5 phosphorylation in KHYG-1 cells; test: Phosphorylation of STAT5 in KHYG-1 cells (Example 7); format: cell-based, human; settings: 10 minutes
Description: KHYG-1 cells were cultured in RPMI-1640 medium supplemented with 20% FBS, 2 mM L-glutamine, and 20 ng/mL IL-2 (Complete growth medium) in a humidified incubator at 37° C. and 5% CO2.
One day prior to treatment with test compounds, cells were seeded at a density of 500,000 viable cells/ml in Complete growth medium and incubated overnight under normal growth conditions. On the day of the assay, KHYG-1 cells were washed 3 times with DPBS, resuspended in assay medium (RPMI-1640 medium supplemented with 20% FBS, 2 mM L-glutamine), and incubated for 4-5 hours at 37° C., 5% CO2. Cells were adjusted to the appropriate density (8×10^5 cells/mL) in assay medium and 50,000 cells/well were aliquoted into wells of a 96-well plate (View-Plate 96, Perkin-Elmer).
KHYG-1 cells were stimulated with IL-15 or a long-acting IL-15 receptor agonist (mono(mPEG-butanamide)IL-15) followed by incubation at 37° C., 5% CO2 for 10 minutes. Treated cells were lysed on ice.
Detection of phospho-STAT5 protein levels in cell lysates was performed using the Phospho(Tyr694)/Total STAT5a,b Assay Whole Cell Lysate kit (MSD product #K15163D). Relative light unit (RLU) signal corresponding to phosphor-STAT5 was collected using a Sector® Imager 2400 plate reader (MSD) with the results provided in FIG. 10A.

[3] = system: HCT-116 colorectal carcinoma cells; test: Tumor growth inhibition and delay in HCT-116 colorectal carcinoma xenograft model (Example 19); format: in vivo, mice
Description: Tumor growth inhibition was evaluated on day 19 after treatment initiation.
The tumor growth delay was evaluated by measuring tumor volume quadrupling time (TVQT) from baseline tumor volume on treatment initiation day.

CD56+ human NK cells = test: Human NK cell proliferation in CFSE labeled PBMCs (Example 5); format: cell-based; settings: 5 days; Conjugate 1 100 ng/ml; plate coated with hIgG 0.1 mg/ml
Description: NK cell proliferation within a human peripheral blood mononuclear cell (PBMCs) labeled with CFSE preparation was induced in vitro. The CFSE labeled PBMCs were incubated for 5 days in vitro in the presence of (i) mono(methoxyPEG-N-butanamide)40 kD interleukin-15 (Conjugate 1) at a concentration of 100 ng/ml; (ii) on cell culture plastic that had been prior coated overnight with human total immunoglobulin G (hIgG) solution at a concentration of 0.1 mg/ml (iii) on cell culture plastic that had been prior coated overnight with human total immunoglobulin G (hIgG) solution at a concentration of 0.1 mg/ml and in the presence of Conjugate 1 at a concentration of 100 ng/ml; or (iv) on regular cell culture plastic. After the incubation period, cell proliferation as indicated by the decrease of CFSE in the cells that had undergone cell doublings was measured with flow cytometry (FIGS. 8A-8D) measuring CFSE levels in CD56+ human NK cells within the PBMCs preparation in each of the four incubation conditions.

Daudi B cell lymphoma [4] = test: NK cell counts, Daudi cell counts and granzyme B in bone marrow, Daudi xenograft model, combination with daratumumab (Example 2); format: in vivo, mice
Description: SCID mice (N=6/group) were intravenously inoculated with 1×10^7 Daudi cells on Day 0 and treated with a single dose of the anti-human CD38 antibody, daratumumab (0.5 mg/kg IP, 14 days following Daudi cell inoculation) and two doses of mono(methoxyPEG-N-butanamide)interleukin-15 (0.3 mg/kg SC, one dose at each of 14 and 21 days after inoculation). Mice were also treated with the single agent therapies: daratumumab (0.5 mg/kg IP, 14 days following Daudi cell inoculation) or two doses of mono(methoxyPEG-N-butanamide)40 kD interleukin-15 (0.3 mg/kg SC, 14 and 21 days after inoculation).
(One-way ANOVA, Tukey's multiple comparison test).

mono(methoxyPEG-N-butanamide)40 kD interleukin-15 [Conjugate 1]
ADCC, % 7-AAD+CD45-EpCAM+ target cells (HCT-116 cells): enhance ADCC of cetuximab-coated human solid tumor cells
tumor growth inhibition (NCI-N87 cells): no tumor growth inhibition
survival (Daudi B cell lymphoma [1]): 0%
phosphorylation of STAT5 [2]: dose-dependent phosphorylation of STAT5
potency in STAT5 phosphorylation, fold less than IL-15 [2]: ~3 fold
tumor growth inhibition ([3]; day 19 after treatment initiation, cetuximab 40 mg/kg IP x6, Compound 1 0.3 mg/kg IV x3): 31%
tumor growth delay (TVQT) ([3]; tumor volume quadrupling time from baseline): 26%
% CD56+ NK cells proliferating (CD56+ human NK cells): 49.7%
granzyme B expression in bone marrow NK cells (Daudi B cell lymphoma [4]; alone or in combination with daratumumab): increase granzyme B expression
increase in NK cell count in bone marrow (Daudi B cell lymphoma [4]; day 24, agonist 0.3 mg/kg SC days 14 and 21, daratumumab 0.5 mg/kg IP day 14): 10 fold
